Earlier results, collected in publication PMC11702666, “The anti-COVID-19 drug Paxlovid crosses biological barriers of the placenta and brain in rats” (npj Viruses, 2024).
“Also recorded” adds a separate entry of the source. Like-named read-outs stand apart in the source and are kept apart here.

Experiments:
CYP3A = conditions: cited from earlier work; for AUC0 to infinity: midazolam 2 mg p.o.
[1] = cited from earlier work
[2] = PBPK model LeiCNS-PK3.0; recommended dosing regimen; cited from earlier work
[3] = male rats; cited from earlier work
[4] = oral; cited from earlier work

Cc1ncc2n1-c1ccc(Cl)cc1C(c1ccccc1F)=NC2 [midazolam]
increase of apparent CYP3A activity during pregnancy (CYP3A; for midazolam): 35-38%
AUC0 to infinity (CYP3A; postpartum): 17.9 ± 6.0 ng·h/mL
increase in CYP3A activity (CYP3A; pregnancy vs postpartum, from midazolam AUC): 1.88 fold
AUC0 to infinity (CYP3A; pregnancy, healthy pregnant women): 9.5 ± 4.3 ng·h/mL

CCC(CC)COC(=O)[C@H](C)N[P@](=O)(OC[C@H]1O[C@@](C#N)(c2ccc3c(N)ncnn23)[C@H](O)[C@@H]1O)Oc1ccccc1 [remdesivir]
placental barrier transfer ([1]; experimental animal model): transfer to the placental barrier
predicted brain penetration / effective concentrations against SARS-CoV-2 [2]: unable to penetrate the BBB

CC(C)C(=O)OC[C@H]1O[C@@H](n2ccc(NO)nc2=O)[C@H](O)[C@@H]1O [molnupiravir]
placental barrier transfer ([1]; pregnant rats): traverse the placental barrier; also recorded: transfer to the placental barrier
predicted brain penetration / effective concentrations against SARS-CoV-2 [2]: unable to penetrate the BBB
blood–brain barrier transfer [3]: exhibit the potential to cross the blood–brain barrier

CC(C)c1nc(CN(C)C(=O)N[C@H](C(=O)N[C@@H](Cc2ccccc2)C[C@H](O)[C@H](Cc2ccccc2)NC(=O)OCc2cncs2)C(C)C)cs1 [ritonavir]
bioavailability [4]: ~80%
